Reference: PubChem BioAssay (NCI)
Where “and” joins values, the source holds several entries; their conditions need not be identical. Equal values may be shown once.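 48-hour exposure; five concentrations; linearly interpolated endpoints. GI50 marks 50% less growth. At the TGI there is no net growth.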 *1 amine or outer side, *2 acyl side, *3 side chain or, on linkers, in order; H or OH if unused. Where a SMILES comes first, the peptide text is derived from it. Bridges are numbered along the chain shown (N, C = ends). [ ]: non-standard residue; d: D form. The star is where a group is joined. Phe(3-Me) = Cc1cccc(C[C@H](N)C(=O)O)c1; NH(4-Cl-2-F-phenyl) = Fc1cc(Cl)ccc1N*; Pro(4R-Me) = C[C@H]1CN[C@H](C(=O)O)C1; Propanoyl(3-NMe2) = CN(C)CCC(=O)*; Hyp = O=C(O)[C@@H]1C[C@@H](O)CN1; aThr = C[C@H](O)[C@H](N)C(=O)O; Pip = O=C(O)[C@@H]1CCCCN1; CO = O=C([*:1])[*:2]

Key:
Assay in all cases: NCI tumour cell line growth inhibition, 48 h
A549 NSCLC = test system: A549 NSCLC
HCT-15 colon = test system: HCT-15 colon
K-562 leukemia = test system: K-562 leukemia
M14 melanoma = test system: M14 melanoma
NCI-H226 lung = test system: NCI-H226 lung
NCI-H23 lung = test system: NCI-H23 lung
NCI-H522 lung = test system: NCI-H522 lung
OVCAR-4 ovarian = test system: OVCAR-4 ovarian
OVCAR-8 ovarian = test system: OVCAR-8 ovarian
SF-268 CNS = test system: SF-268 CNS

SMILES	GI50 (A549 NSCLC)	TGI (A549 NSCLC)	GI50 (HCT-15 colon) [µM]	TGI (HCT-15 colon) [µM]	GI50 (K-562 leukemia) [µM]	TGI (K-562 leukemia) [µM]	GI50 (M14 melanoma) [µM]	TGI (M14 melanoma) [µM]	GI50 (NCI-H226 lung)	TGI (NCI-H226 lung) [µM]	GI50 (NCI-H23 lung) [µM]	TGI (NCI-H23 lung) [µM]	GI50 (NCI-H522 lung) [µM]	TGI (NCI-H522 lung) [µM]	GI50 (OVCAR-4 ovarian) [µM]	TGI (OVCAR-4 ovarian) [µM]	GI50 (OVCAR-8 ovarian) [µM]	TGI (OVCAR-8 ovarian) [µM]	GI50 (SF-268 CNS)	TGI (SF-268 CNS) [µM]
O=S(=O)(NCCCNc1cc(-c2cn(-c3ccccc3)nc2-c2cccc(O)c2)ccn1)c1ccc(Cl)cc1	2.64 µM	10.1 µM	1.34	3.45	0.437	2.5	1.6	3.2	1.77 µM	5.13	1.64	4.98	1.88	4.06	1.67	5.92	2.11	6.06	1.55 µM	5.18
Nc1c(C(=O)Nc2ccccc2)sc2nc3c(cc12)CCCC3	0.546 µM	39.4 µM	0.436	> 100	0.436	> 100	0.487	> 100	3.31 µM	> 100	1.08	> 100	0.872	> 25.8	5.18	> 100	1.8	> 100	2.2 µM	> 100
CC1CCC23COC(=O)C2C(O)CCC3C1(C)CC(O)c1ccoc1 (stereo not drawn)		> 100 µM		> 100		> 100		> 100		> 100		> 100		> 100		> 100		> 100		> 100
COc1ccc(CNc2nc(NCc3ccc(OC)cc3)c3n[nH]c(C(C)C)c3n2)cc1	7.25 µM	> 100 µM	5.09	28.8	3.13	11.7	2.28	5	14.1 µM	59.8	4.09	18.3	2.26	4.51	1.76	17.5	12.5	53.6	5.58 µM	26.3
CC1=CC2C(C(C)C)CC1C1C(=O)OC(=O)C21 (stereo not drawn)		> 100 µM		> 100		> 100		> 100		> 100		> 100		> 100		> 100		> 100		> 100
NC[C@@](O)(c1ccc(Cl)cc1)c1ccc(-c2cn[nH]c2)cc1	1.5 µM and 1.41 µM	4.08 µM and 3.21 µM	0.867	2.7	1.69	3.53	2.34	5.98	1.42 µM and 2.19 µM	> 100		> 100	1.45	3.53	1.4	2.86	1.63	3.43	1.24 µM and 1.28 µM	> 100
CC/C=C\C/C=C\C[C@H]1C/C=C2/C(=O)C=C[C@H]2C/C=C\CCC(=O)O1	3.96 µM	12.2 µM	2.23	6	2.84	> 14.3	4.48	> 14.3	2.78 µM	8.54	3.03	8.31	1.83	5.32	5.22	> 14.3	4.73	> 14.3	3.31 µM	10.4
COc1cc(-c2cc(CCC(=O)Nc3ccccc3[N+](=O)[O-])n(-c3ccc([N+](=O)[O-])cc3[N+](=O)[O-])n2)ccc1O	> 100 µM	> 100 µM	> 10	> 100	> 10	> 100	> 100	> 100	> 100 µM	> 100	> 100	> 100	> 100	> 100	> 100	> 100	> 100	> 100	> 100 µM	> 100
Cn1c(=S)sc2nc3ccccc3n2c1=S		97.5 µM		29.4		21.5		18.7		58.7		30.7		15.1		42.3		30.1		24.7
Cc1cccc(C[C@H](NC(=O)Nc2ccc(Cl)cc2F)C(=O)N[C@@H]2C(=O)N3C[C@H](OC(=O)CCN(C)C)C[C@H]3C(=O)N3CCCC[C@H]3C(=O)N[C@@H](C)C(=O)N3C[C@H](C)C[C@H]3C(=O)O[C@H]2C)c1 ({NH(4-Cl-2-F-phenyl)-CO}-[Phe(3-Me)][aThr][Hyp](Propanoyl(3-NMe2))[Pip]A[Pro(4R-Me)]; ester 2-C)	0.526 µM	11.2 µM	1.98	4.34	0.3		0.474	1.89	0.45 µM	2.19	0.519	3.17	0.495	2.47	0.334	2.06	0.431	12.9	0.466 µM	4.08
